Measured values: the supplement of paper PMC13380429

Legend:
[1] = system: A549-ACE2 infected with SARS-CoV-2; assay: cell count relative to DMSO; higher = less toxic; conditions: 24 h
[2] = system: Caco-2; assay: cell viability relative to DMSO; higher = less toxic; conditions: 72 h
[3] = system: Calu-3; assay: as above; conditions: 72 h
[4] = system: HepG2; assay: as above; conditions: 72 h
[5] = system: U2OS; assay: as above; conditions: 72 h
[6] = system: Vero E6; assay: as above; conditions: 72 h
[7] = system: A549-ACE2 infected with SARS-CoV-2; assay: SARS-CoV-2 infection rate relative to DMSO; higher = more infection; conditions: 24 h
[8] = system: A549-ACE2; assay: drug-induced phospholipidosis relative to tamoxifen; higher = more phospholipidosis
[9] = system: A549-ACE2 infected with SARS-CoV-2; assay: morphology score (similarity to uninfected cells); higher = more like uninfected cells; conditions: 24 h
[10] = system: Caco-2; assay: relative viability EC50 (midpoint between 100% and the lowest measured viability); higher = less toxic; conditions: 72 h
[11] = system: Calu-3; assay: as above; conditions: 72 h
[12] = system: U2OS; assay: as above; conditions: 72 h
[13] = system: Vero E6; assay: as above; conditions: 72 h
[14] = system: Caco-2; assay: drug sensitivity score (DSS) for viability; higher = more toxic; extreme values may be limits of the assay; conditions: 72 h
[15] = system: Calu-3; assay: as above; conditions: 72 h
[16] = system: HepG2; assay: as above; conditions: 72 h
[17] = system: U2OS; assay: as above; conditions: 72 h
[18] = system: Vero E6; assay: as above; conditions: 72 h
[19] = system: A549-ACE2; assay: phospholipidosis EC50; higher = less potent phospholipidosis inducer; conditions: 24 h
[20] = system: HepG2; assay: relative viability EC50 (midpoint between 100% and the lowest measured viability); higher = less toxic; conditions: 72 h

O=C(Nc1ccc(-c2ccnc(Nc3ccc(N4CCOCC4)cc3)n2)cc1)C1CCCN1 (centres undefined) [XL019]
Conditions | SARS-CoV-2 infection rate, [7] [%] | cell count, [1] [%] | cell viability, [2] [%] | cell viability, [3] [%] | cell viability, [4] [%] | cell viability, [5] [%] | cell viability, [6] [%] | morphology score, [9]
1 nM | – | – | 89.4 | 109 | 95.1 | 97.9 | 102 | –
10 nM | – | – | 99.2 | 98 | 96.3 | 97.5 | 102 | –
100 nM | – | – | 98.7 | 107 | 89.9 | 98 | 98.5 | –
0.3 µM | 100 | 98 | – | – | – | – | – | 0.04
1000 nM | – | – | 94.2 | 122 | 88.1 | 96.5 | 94.5 | –
3 µM | 101 | 99 | – | – | – | – | – | -0.09
10 µM | 86 | 109 | – | – | – | – | – | 0.26
10000 nM | – | – | 86.5 | 119 | 67.5 | 90.6 | 94.6 | –
30 µM | 46 | 109 | – | – | – | – | – | 0.33

drug-induced phospholipidosis [%], [8]
Conditions | 0.3 µM | 0.833333 µM | 3.33333 µM | 6.66667 µM | 10 µM | 30 µM
24 h | -0.79 | -8.22 | -5.43 | 0.07 | 5.79 | 96.9
48 h | 3.03 | -8.76 | -8.92 | -8.57 | -5.17 | 83.3
72 h | 5.53 | -8.19 | -8.71 | -9.82 | -6.36 | –

Conditions | drug sensitivity score | relative viability EC50 [µM]
[10] | – | > 10
[11] | – | > 10
[12] | – | > 10
[13] | – | > 10
[14] | 0 | –
[15] | 0 | –
[16] | 2.8 | –
[17] | 0 | –
[18] | 0 | –

CCOC(=O)C1=C(COCCN)NC(C)=C(C(=O)OC)C1c1ccccc1Cl (centres undefined) [amlodipine]
Conditions | SARS-CoV-2 infection rate, [7] [%] | cell count, [1] [%] | cell viability, [2] [%] | cell viability, [3] [%] | cell viability, [4] [%] | cell viability, [5] [%] | cell viability, [6] [%] | morphology score, [9]
1 nM | – | – | 97.9 | 93.6 | 97.7 | 94.8 | 96.7 | –
10 nM | – | – | 102 | 104 | 98.1 | 102 | 90.2 | –
100 nM | – | – | 98.2 | 94.1 | 91.2 | 96.6 | 91.1 | –
0.3 µM | 107 | 96 | – | – | – | – | – | -0.27
1000 nM | – | – | 93.5 | 102 | 99.2 | 101 | 84.8 | –
3 µM | 79 | 112 | – | – | – | – | – | 0.49
10 µM | 23 | 119 | – | – | – | – | – | 0.92
10000 nM | – | – | 94.2 | 93.9 | 96.4 | 97.5 | 96.1 | –
30 µM | 30 | 91 | – | – | – | – | – | 0.35

Conditions | drug sensitivity score | phospholipidosis EC50 [µM] | relative viability EC50 [µM]
[10] | – | – | > 10
[11] | – | – | > 10
[12] | – | – | > 10
[13] | – | – | > 10
[14] | 0 | – | –
[15] | 0 | – | –
[16] | 0 | – | –
[17] | 0 | – | –
[18] | 0 | – | –
[19] | – | 10.9 | –
[20] | – | – | > 10

drug-induced phospholipidosis [%], [8]
Conditions | 0.3 µM | 0.833333 µM | 3.33333 µM | 6.66667 µM | 10 µM | 30 µM
24 h | 4.07 | -2.24 | 14.4 | 39.7 | 58.4 | 105
48 h | 3.72 | 0.34 | 10.8 | 17.5 | 37 | 187
72 h | 5.62 | -0.058 | 6.8 | 13.1 | 21 | 181
